In patent publication US9695154B2, “Heteroaryl inhibitors of sumo activating enzyme” (MILLENNIUM PHARMACEUTICALS, INC., priority 2013, dated 2017) one finds IC50 and inhibition data, which are given here for 19 molecules.

The target in the assay is T1, recombinant human SAE enzyme (Homo sapiens, UniProt Q9UBT2).
T1 sequence (Q9UBT2 1-640): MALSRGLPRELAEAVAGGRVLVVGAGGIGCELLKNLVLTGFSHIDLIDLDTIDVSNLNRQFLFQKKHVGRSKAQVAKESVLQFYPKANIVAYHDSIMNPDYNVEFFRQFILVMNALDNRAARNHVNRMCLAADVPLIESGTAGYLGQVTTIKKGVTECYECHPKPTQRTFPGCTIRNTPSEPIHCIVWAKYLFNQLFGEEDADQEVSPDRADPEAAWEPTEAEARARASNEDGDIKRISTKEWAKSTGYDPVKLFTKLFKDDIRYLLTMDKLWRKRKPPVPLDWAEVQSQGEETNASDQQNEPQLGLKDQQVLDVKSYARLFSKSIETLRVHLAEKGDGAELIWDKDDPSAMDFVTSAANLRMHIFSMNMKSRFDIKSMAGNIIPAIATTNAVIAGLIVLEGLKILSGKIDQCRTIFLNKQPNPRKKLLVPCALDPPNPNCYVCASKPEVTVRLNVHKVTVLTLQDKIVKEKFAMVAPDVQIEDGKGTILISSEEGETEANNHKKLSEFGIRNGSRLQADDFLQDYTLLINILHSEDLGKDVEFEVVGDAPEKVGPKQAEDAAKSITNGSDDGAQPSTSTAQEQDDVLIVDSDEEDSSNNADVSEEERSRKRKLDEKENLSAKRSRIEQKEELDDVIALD
T1 sequence (Q9UBE0 1-346 partner): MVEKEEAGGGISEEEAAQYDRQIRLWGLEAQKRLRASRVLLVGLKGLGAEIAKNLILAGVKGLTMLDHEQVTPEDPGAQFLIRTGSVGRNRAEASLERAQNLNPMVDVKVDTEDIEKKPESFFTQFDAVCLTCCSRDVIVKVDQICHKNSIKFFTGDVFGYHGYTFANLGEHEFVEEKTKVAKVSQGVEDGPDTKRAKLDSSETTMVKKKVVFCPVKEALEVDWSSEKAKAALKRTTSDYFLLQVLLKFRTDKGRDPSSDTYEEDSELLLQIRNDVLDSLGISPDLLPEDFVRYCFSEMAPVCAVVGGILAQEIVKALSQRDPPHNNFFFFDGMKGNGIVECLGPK
The experiment in a line: SAE HTRF Enzyme Assay. In kind it is biochemical. Particulars: for IC50: class symbols A-C; for inhibition at 0.111 µM: compound concentration 0.111 μM, read-out: Percent Inhibition. The gist of the method:
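Recombinant human SAE (0.11 nM) transferred Sumo-Flag (0.125 μM) to Ubc9-GST (0.01 μM) with 0.5 μM ATP in HEPES pH 7.5, MgCl2, GSH, BSA; 105 min at 24° C. EDTA stop, Eu-cryptate anti-Flag and XL-APC anti-GST added, 2 h, then HTRF read. Values given as % inhibition at one concentration or IC50.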
(TR-FRET usually uses a lanthanide donor and a delayed reading to cut background.)

By IC50 is commonly meant the concentration that gives 50% inhibition. One may read the inhibition as the share of the control response that was lost under treatment. As to `NS(=O)(=O)OC[C@H]1C[C@@H](Nc2ncncc2C(=O)c2ccn(Cc3ccc(Cl)c(C(F)(F)F)c3)n2)C[C@@H]1O` [Compound I-288, [(1R,2S,4R)-4-{[5-({1-[4-chloro-3-(trifluoromethyl)benzyl]-1H-pyrazol-3-yl}carbonyl)pyrimidin-4-yl]amino}-2-hydroxycyclopentyl]methyl sulfamate], the IC50 is under 10 nM and the inhibition at 0.111 µM was 97%.

As for `NS(=O)(=O)OC[C@H]1C[C@@H](Nc2ccncc2C(=O)c2ccn(Cc3ccc(Cl)c(C(F)(F)F)c3)n2)C[C@@H]1O` [Compound I-174, [(1R,2S,4R)-4-{[3-({1-[4-chloro-3-(trifluoromethyl)benzyl]-1H-pyrazol-3-yl}carbonyl)pyridin-4-yl]amino}-2-hydroxycyclopentyl]methyl sulfamate], the IC50 is under 10 nM and the inhibition at 0.111 µM turned out to be 93%.

Regarding `CC(C)(O)C#CCn1ccc(C(=O)c2cncnc2N[C@@H]2C[C@H](COS(N)(=O)=O)[C@@H](O)C2)n1` [Compound I-154, {(1R,2S,4R)-2-hydroxy-4-[(5-{[1-(4-hydroxy-4-methylpent-2-yn-1-yl)-1H-pyrazol-3-yl]carbonyl}pyrimidin-4-yl)amino]cyclopentyl}methyl sulfamate], the IC50 fell in the range of 100 to 1000 nM and the inhibition at 0.111 µM was determined as 39%.

Take `NS(=O)(=O)OC[C@H]1C[C@@H](Nc2ccncc2C(=O)c2ccn(Cc3cccc(OC(F)(F)F)c3)n2)C[C@@H]1O` [Compound I-18, [(1R,2S,4R)-2-hydroxy-4-{[3({1-[3-(trifluoromethoxy)benzyl]-1H-pyrazol-3-yl}carbonyl)pyridin-4-yl]amino}cyclopentyl]methyl sulfamate]: the IC50 was under 10 nM and the inhibition at 0.111 µM worked out at 96%.

As for `NS(=O)(=O)OC[C@H]1C[C@@H](Nc2ncncc2C(=O)c2ccn(Cc3ccc(F)c(C(F)(F)F)c3)n2)[C@H](O)[C@@H]1O` [Compound I-343, [(1R,2R,3S,4R)-4-{[5-({1-[4-fluoro-3-(trifluoromethyl)benzyl]-1H-pyrazol-3-yl}carbonyl)pyrimidin-4-yl]amino}-2,3-dihydroxycyclopentyl]methyl sulfamate], the IC50 is under 10 nM and the inhibition at 0.111 µM was 97%.

Take `COCCn1ccc(C(=O)c2cncnc2N[C@@H]2C[C@H](COS(N)(=O)=O)[C@@H](O)C2)n1` [Compound I-305, {(1R,2S,4R)-2-hydroxy-4-[(5-{[1-(2-methoxyethyl)-1H-pyrazol-3-yl]carbonyl}pyrimidin-4-yl)amino]cyclopentyl}methyl sulfamate]: the IC50 was in the range of 100 to 1000 nM and the inhibition at 0.111 µM was found to be 32%.

Take `COC(C)(C)C#CCn1ccc(C(=O)c2cncnc2N[C@@H]2C[C@H](COS(N)(=O)=O)[C@@H](O)C2)n1` [Compound I-151, {(1R,2S,4R)-2-hydroxy-4-[(5-{[1-(4-methoxy-4-methylpent-2-yn-1-yl)-1H-pyrazol-3-yl]carbonyl}pyrimidin-4-yl)amino]cyclopentyl}methyl sulfamate]: the IC50 fell in the range of 10 to 100 nM and the inhibition at 0.111 µM worked out at 54%.

Turning to `NS(=O)(=O)OC[C@H]1C[C@@H](Nc2ncncc2C(=O)c2ccn(Cc3ccccc3F)n2)[C@H](O)[C@@H]1O` [Compound I-338, {(1R,2R,3S,4R)-4-[(5-{[1-(2-fluorobenzyl)-1H-pyrazol-3-yl]carbonyl}pyrimidin-4-yl)amino]-2,3-dihydroxycyclopentyl}methyl sulfamate], the IC50 is under 10 nM and the inhibition at 0.111 µM was 99%.

Take `N#CCn1ccc(C(=O)c2cncnc2N[C@@H]2C[C@H](COS(N)(=O)=O)[C@@H](O)C2)n1` [Compound I-108, {(1R,2S,4R)-4-[(5-{[1-(cyanomethyl)-1H-pyrazol-3-yl]carbonyl}pyrimidin-4-yl)amino]-2-hydroxycyclopentyl}methyl sulfamate]: the IC50 lay in the range of 100 to 1000 nM and the inhibition at 0.111 µM came to 18%.

Take `NS(=O)(=O)OC[C@H]1C[C@@H](Nc2ncncc2C(=O)c2ccn(Cc3ccc(Cl)c(Cl)c3)n2)C[C@@H]1O` [Compound I-58, {(1R,2S,4R)-4-[(5-{[1-(3,4-dichlorobenzyl)-1H-pyrazol-3-yl]carbonyl}pyrimidin-4-yl)amino]-2-hydroxycyclopentyl}methyl sulfamate]: the IC50 was under 10 nM and the inhibition at 0.111 µM came to 88%.

For `NS(=O)(=O)OC[C@H]1C[C@@H](Nc2ncncc2C(=O)c2ccn(Cc3cc(Cl)ccc3Cl)n2)C[C@@H]1O` [Compound I-289, {(1R,2S,4R)-4-[(5-{[1-(2,5-dichlorobenzyl)-1H-pyrazol-3-yl]carbonyl}pyrimidin-4-yl)amino]-2-hydroxycyclopentyl}methyl sulfamate], the IC50 is under 10 nM and the inhibition at 0.111 µM is 98%.

`NS(=O)(=O)OC[C@H]1C[C@@H](Nc2ncncc2C(=O)c2ccn(Cc3cccc(NC(=O)CCl)c3)n2)[C@H](O)[C@@H]1O` [Compound I-67, [(1R,2R,3S,4R)-4-({5-[(1-{3-[(chloroacetyl)amino]benzyl}-1H-pyrazol-3-yl)carbonyl]pyrimidin-4-yl}amino)-2,3-dihydroxycyclopentyl]methyl sulfamate]: the IC50 is under 10 nM and the inhibition at 0.111 µM came to 94%.

As to `NS(=O)(=O)OC[C@H]1C[C@@H](Nc2ncncc2C(=O)c2ccn(Cc3ccc(F)cc3F)n2)C[C@@H]1O` [Compound I-62, {(1R,2S,4R)-4-[(5-{[1-(2,4-difluorobenzyl)-1H-pyrazol-3-yl]carbonyl}pyrimidin-4-yl)amino]-2-hydroxycyclopentyl}methyl sulfamate], the IC50 was under 10 nM and the inhibition at 0.111 µM stood at 96%.

As for `NS(=O)(=O)OC[C@H]1C[C@@H](Nc2ncncc2C(=O)c2ccn(Cc3ccc(F)o3)c2)[C@@H](F)[C@@H]1O` [Compound I-231, [(1R,2R,3R,4R)-3-fluoro-4-{[5-({1-[(5-fluoro-2-furyl)methyl]-1H-pyrrol-3-yl}carbonyl)pyrimidin-4-yl]amino}-2-hydroxycyclopentyl]methyl sulfamate], the IC50 was under 10 nM and the inhibition at 0.111 µM was determined as 99%.

With `NS(=O)(=O)OC[C@H]1C[C@@H](Nc2ncncc2C(=O)c2ccn(Cc3cc4ccccc4s3)c2)[C@@H](F)[C@@H]1O` [Compound I-322, {(1R,2R,3R,4R)-4-[(5-{[1-(1-benzothiophen-2-ylmethyl)-1H-pyrrol-3-yl]carbonyl}pyrimidin-4-yl)amino]-3-fluoro-2-hydroxycyclopentyl}methyl sulfamate], the IC50 was under 10 nM and the inhibition at 0.111 µM turned out to be 99%.

Consider `C#Cc1cccc(Cn2nc(C(=O)c3cncnc3N[C@@H]3C[C@H](COS(N)(=O)=O)[C@@H](O)C3)cc2C)c1` [Compound I-164, {(1R,2S,4R)-4-[(5-{[1-(3-ethynylbenzyl)-5-methyl-1H-pyrazol-3-yl]carbonyl}pyrimidin-4-yl)amino]-2-hydroxycyclopentyl}methyl sulfamate], for which the IC50 was under 10 nM and the inhibition at 0.111 µM is over 99%.

For `NS(=O)(=O)OC[C@H]1C[C@@H](Nc2ncncc2C(=O)c2ccn(Cc3c(F)ccc(F)c3F)n2)[C@H](O)[C@@H]1O` [Compound I-225, {(1R,2R,3S,4R)-2,3-dihydroxy-4-[(5-{[1-(2,3,6-trifluorobenzyl)-1H-pyrazol-3-yl]carbonyl}pyrimidin-4-yl)amino]cyclopentyl}methyl sulfamate], the IC50 was under 10 nM and the inhibition at 0.111 µM is over 99%.

For the molecule `NS(=O)(=O)OC[C@H]1C[C@@H](Nc2ncncc2C(=O)c2ccn(Cc3cc(C(F)(F)F)cc(C(F)(F)F)c3)n2)[C@H](O)[C@@H]1O` [Compound I-155, [(1R,2R,3S,4R)-4-{[5-({1-[3,5-bis(trifluoromethyl)benzyl]-1H-pyrazol-3-yl}carbonyl)pyrimidin-4-yl]amino}-2,3-dihydroxycyclopentyl]methyl sulfamate], the IC50 was under 10 nM and the inhibition at 0.111 µM came out at 97%.

For `NS(=O)(=O)OC[C@H]1C[C@@H](Nc2ncncc2C(=O)c2ccn(Cc3ccccc3OC(F)(F)F)n2)[C@H](O)[C@@H]1O` [Compound I-98, [(1R,2R,3S,4R)-2,3-dihydroxy-4-{[5-({1-[2-(trifluoromethoxy)benzyl]-1H-pyrazol-3-yl}carbonyl)pyrimidin-4-yl]amino}cyclopentyl]methyl sulfamate], the IC50 is under 10 nM and the inhibition at 0.111 µM was found to be 96%.
